Measured values reported in paper PMC4595804, “A strategy to discover decoy chemokine ligands with an anti-inflammatory activity” (Scientific Reports, 2015).
Where two headings read alike, the source gives them in different places.

Tests used:
[1] = Solubility measurements (RP-HPLC); assay type: physicochemical; settings: kinetic from dmso stock, dissolved at 10 µM, room temperature
Method: Standard stock solutions of compounds (10mM) were prepared in DMSO, and the molecules were dissolved at a concentration of 10µM in each of the three buffers. The samples were shaken for 1h at room temperature, and centrifuged at 15,000×g . The compounds concentration in the supernatant solutions was determined using RP-HPLC (Gilson) technique. The measurements were done with a UV detector set at 230nm. The measurements were carried out at room temperature using a C18 column ([…], 50×4.6mm, Phenomenex). The aqueous mobile phase contained 0.05% trifluoroacetic acid (solvent A, Sigma-Aldrich). The organic phase was HPLC grade acetonitrile (Sigma-Aldrich CHROMASOLV) (solvent B). The mobile phase flow rate was 2ml/min, and the following program was applied for the elution: 0–0.1min, 5% B; 0.1–2.6min, 5–95% B; 2.6–3.1min, 95% B; 3.1–3.3min, 95–5% B; and 3.3–6min, 5% B. To establish external calibration curves, increasing concentrations of each compound were prepared from standard stock solutions.
The chromatograms were recorded by injecting 20µl of each standard solution, and the calibration curves were plotted using peak areas. […]

COX1 = molecular target: T1, COX1 (Homo sapiens, UniProt P23219); assay: COX1 mediated PGE2 release in primary monocytes; assay type: cell-based; settings: monocytes + arachidonic acid
T1 construct: endogenous in cells; host or cells: primary human monocytes
T1 sequence (P23219 24-599): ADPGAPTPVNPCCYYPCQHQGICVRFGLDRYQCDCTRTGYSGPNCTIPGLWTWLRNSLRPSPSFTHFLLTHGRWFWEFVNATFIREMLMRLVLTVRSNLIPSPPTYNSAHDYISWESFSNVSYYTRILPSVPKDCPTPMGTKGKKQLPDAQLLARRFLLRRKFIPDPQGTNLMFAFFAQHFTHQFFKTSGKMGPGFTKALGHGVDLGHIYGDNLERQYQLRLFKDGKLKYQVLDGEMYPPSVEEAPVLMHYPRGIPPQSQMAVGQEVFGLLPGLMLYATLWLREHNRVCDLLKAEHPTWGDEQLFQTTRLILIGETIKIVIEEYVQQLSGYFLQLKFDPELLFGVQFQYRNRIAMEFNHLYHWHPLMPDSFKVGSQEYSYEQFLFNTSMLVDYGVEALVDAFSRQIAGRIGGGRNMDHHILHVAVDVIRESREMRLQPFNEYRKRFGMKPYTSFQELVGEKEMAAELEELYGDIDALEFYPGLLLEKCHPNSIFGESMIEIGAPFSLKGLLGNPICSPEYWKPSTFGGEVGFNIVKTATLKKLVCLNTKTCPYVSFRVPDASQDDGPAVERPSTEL
Method: the wound closure was determined as the difference between wound width at times 0 and 72h. This experiment was repeated three times.
Human primary monocytes were isolated from buffy coats of healthy human blood donors and seeded in 24-well plates (500,000 cells/ml in 1ml) for COX-1/2 activity or 96-well plates for cell viability experiments.
Cells were seeded in 96 well plates (5,000 cells/well in 200µl) for cytotoxicity testing (Alamar […]
doses). After 24h, cytotoxicity was evaluated in the wells using the Alamar Blue method. NaF (250µg/ml) was used as a control in this experiment.
Cyclooxygenase (COX) activity
COX1 mediated prostaglandin E2 (PGE2) release. Monocytes were treated with arachidonic […]
were then collected for the determination of PGE2 by enzyme immunoassay (EIA) […]
COX2 mediated prostaglandin E2 (PGE2) release. Monocytes were incubated with LPS (10U/ml) for 24h to induce COX2 protein synthesis. After renewal of medium (serum free), […]
before AA treatment. The activity of COX2 was determined by measuring PGE2 (Cayman) in the supernatants by EIA. Aspirin (10µM) and diclofenac (10µM) were used as control […]
NaF (250µg/ml) was used as a control (relative light unit, r.l.u). (c) Monocytes were treated […]
GPN136 (grey bars). The activity of COX1 was determined by measuring prostaglandin E2 (PGE2). […]
of COX2 was determined by measuring PGE2. […]

HUT78 T cells = assay: WST-1 metabolic activity assay; assay type: cell-based, human; settings: 30 μM (highest concentration), 72 h
From the text: WST-1 metabolic activity assay
The colorimetric WST-1 cell metabolic assay (Ozyme) was used to assess the cytotoxic effect of chemokine neutraligands. This is a cell viability test based on the enzymatic cleavage by the mitochondrial succinate-tetrazolium reductase of a tetrazolium salt, WST-1 (4-[3-(4-Iodophenyl)-2-(4-nitrophenyl)-2H-5-tetrazolio]-1,3 benzene disulfonate), into a water- […]
soluble formazan dye which can be detected by absorbance at 420-480nm. HUT78 T cells (or HaCat cells) were seeded on 24-well plates (200,000 cells per well) and were incubated […]
concentration ≤1% on cells). The background control was reserved as one well containing the culture medium only. The plates were incubated for 72h at 37°C. Three days later, the medium containing the neutraligands was removed, and WST-1 reagent (1:10 final dilution) (Ozyme) was added to each well for a 2h incubation at 37°C as the manufacturer’s recommendation. The plates were shaken and absorbance was measured at 450nm (reference wavelength 690nm) against the background control, using a multiwell plate reader (EnVision, Perkin Elmer). Assays were performed as three independent replicates. […]
(Heidelberg, Germany) and was cultured in Dulbecco’s Modified Eagle Medium (DMEM) (Invitrogen) supplemented with 10% fetal bovine serum (FBS) (Gibco-BRL), 100U/ml penicillin (Invitrogen), 100µg/ml streptomycin (Invitrogen) and 2mM L-glutamine (Invitrogen) at 37°C and 5% CO 2. The cells received fresh medium every other day and were subcultured every 10 days. HaCat cells were seeded in a 24-well plate (ESSEN Bioscience) at a density of 200,000 cells per well, and were allowed to grow until confluence. A scratch wound along the cell monolayer was created using the Essen woundmakerTM. Cells were washed twice with PBS to remove detached cells, and were treated with serum-free culture medium in the absence or presence of 100ng/ml chemokine (CCL22 or CCL17) preincubated with DMSO or […]
The molecules were also tested alone […]
without the chemokine. […] One […]
µg/ml of mitomycin C (Sigma-Aldrich) was added throughout the experiment in order to block cell proliferation. Once treated, the cells were immediately placed into the IncuCyteTM live-cell imaging, and the cell migration onto the wounded area was examined for 72h. Phase-contrast images acquired for each sample were captured every 2h (objective lens x10), and […]

[2] = HEPES buffer, aqueous buffer, read-out: solubility in HEPES buffer
[3] = complete cell culture medium, plasma or biological fluid, read-out: solubility in the cell culture medium

SMILES	solubility at 1 h [1, 2]	solubility at 1 h [1, 3]	effect on COX1 activity (PGE2) (COX1; 100 µM)	cytotoxic activity on HUT78 T cells (metabolic activity vs control non-treated cells) (HUT78 T cells)	doses at which COX1 activity is inhibited (COX1)
CC(C)=CCn1cnc2c1c(=O)n(C)c(=O)n2C [GPN279, 1,3-dimethyl-7-(3-methylbut-2-enyl)-1H-purine-2,6(3H, 7H)-dione]	> 10 µM	> 10 µM	no effect	no cytotoxic activity	–
O=C(OCC(O)CO)c1ccccc1O (centres unmarked) [GPN136, 2,3-dihydroxypropyl 2-hydroxybenzoate]	> 10 µM	> 10 µM	–	no cytotoxic activity	> 100 µM
